Laboratory results as given in the CheMixHub viscosity set.
± gives the uncertainty stated by the source.

Experiment: xn = mol fraction of the nth substance listed

COc1ccccc1N + CCC(=O)O
viscosity [mPa·s], 100 kPa
Settings | x1 = 0.1097 | x1 = 0.183 | x1 = 0.2628 | x1 = 0.3502 | x1 = 0.4802 | x1 = 0.5897 | x1 = 0.6693 | x1 = 0.7549 | x1 = 0.8961
303.15 K | 1.402 ± 0.057 | 1.697 ± 0.069 | 2.017 ± 0.082 | 2.367 ± 0.096 | 2.884 ± 0.12 | 3.317 ± 0.14 | 3.631 ± 0.15 | 3.967 ± 0.16 | 4.518 ± 0.18
308.15 K | 1.3 ± 0.053 | 1.575 ± 0.064 | 1.873 ± 0.076 | 2.198 ± 0.089 | 2.679 ± 0.11 | 3.082 ± 0.12 | 3.373 ± 0.14 | 3.685 ± 0.15 | 4.197 ± 0.17
313.15 K | 1.197 ± 0.049 | 1.452 ± 0.059 | 1.727 ± 0.07 | 2.028 ± 0.082 | 2.472 ± 0.1 | 2.844 ± 0.12 | 3.113 ± 0.13 | 3.401 ± 0.14 | 3.873 ± 0.16
318.15 K | 1.097 ± 0.045 | 1.333 ± 0.054 | 1.587 ± 0.065 | 1.865 ± 0.076 | 2.275 ± 0.093 | 2.619 ± 0.11 | 2.867 ± 0.12 | 3.132 ± 0.13 | 3.567 ± 0.14

O=C(O)c1ccccc1 + O=[N+]([O-])c1ccccc1
viscosity [mPa·s], 101 kPa
Settings | x1 = 0.09745 | x1 = 0.108 | x1 = 0.139 | x1 = 0.1489 | x1 = 0.175
308.15 K | 1.746 ± 0.046 | – | – | – | –
313.15 K | 1.626 ± 0.043 | 1.626 ± 0.016 | 1.675 ± 0.016 | 1.746 ± 0.046 | 1.746 ± 0.017
318.15 K | 1.503 ± 0.04 | – | – | 1.611 ± 0.042 | –
323.15 K | 1.397 ± 0.037 | – | – | 1.492 ± 0.039 | –

COC(C)=O + CCCCCCCCCCCC
298.15 K, 101.3 kPa
Settings | viscosity [mPa·s]
x1 = 0.09 | 1.243 ± 0.011
x1 = 0.213 | 1.08 ± 0.0095
x1 = 0.3361 | 0.9577 ± 0.0085
x1 = 0.4514 | 0.8306 ± 0.0074
x1 = 0.5533 | 0.7377 ± 0.0067
x1 = 0.6236 | 0.6777 ± 0.0062
x1 = 0.6972 | 0.6144 ± 0.0057
x1 = 0.7671 | 0.557 ± 0.0052
x1 = 0.8924 | 0.4527 ± 0.0044
x1 = 0.9377 | 0.4171 ± 0.0041

COc1ccccc1N + ClC(Cl)(Cl)Cl
viscosity [mPa·s], 100 kPa
Settings | x2 = 0.0821 | x2 = 0.1726 | x2 = 0.2547 | x2 = 0.3403 | x2 = 0.4788 | x2 = 0.5789 | x2 = 0.6781 | x2 = 0.7641 | x2 = 0.8447
298.15 K | 5.011 ± 0.11 | 4.611 ± 0.097 | 4.247 ± 0.089 | 3.866 ± 0.081 | 3.249 ± 0.068 | 2.8 ± 0.059 | 2.355 ± 0.05 | 1.967 ± 0.041 | 1.603 ± 0.034
303.15 K | 4.596 ± 0.097 | 4.234 ± 0.089 | 3.904 ± 0.082 | 3.559 ± 0.075 | 2.996 ± 0.063 | 2.587 ± 0.054 | 2.179 ± 0.046 | 1.824 ± 0.038 | 1.489 ± 0.031
308.15 K | 4.218 ± 0.089 | 3.892 ± 0.082 | 3.593 ± 0.075 | 3.28 ± 0.069 | 2.768 ± 0.058 | 2.394 ± 0.05 | 2.02 ± 0.042 | 1.694 ± 0.036 | 1.385 ± 0.029
313.15 K | 3.917 ± 0.082 | 3.619 ± 0.076 | 3.346 ± 0.07 | 3.057 ± 0.064 | 2.585 ± 0.054 | 2.239 ± 0.047 | 1.892 ± 0.04 | 1.587 ± 0.033 | 1.299 ± 0.027
318.15 K | 3.643 ± 0.076 | 3.371 ± 0.071 | 3.121 ± 0.066 | 2.856 ± 0.06 | 2.42 ± 0.051 | 2.099 ± 0.044 | 1.776 ± 0.037 | 1.491 ± 0.031 | 1.221 ± 0.026

CCC(C)=O + CS(C)=O
viscosity [mPa·s], 101.3 kPa
Settings | 298.15 K | 308.15 K | 318.15 K
x1 = 0.054 | 1.762 ± 0.046 | 1.448 ± 0.038 | 1.23 ± 0.032
x1 = 0.107 | 1.615 ± 0.043 | 1.335 ± 0.035 | 1.142 ± 0.03
x1 = 0.213 | 1.372 ± 0.036 | 1.138 ± 0.03 | 0.982 ± 0.026
x1 = 0.317 | 1.162 ± 0.031 | 0.979 ± 0.026 | 0.852 ± 0.023
x1 = 0.419 | 0.988 ± 0.026 | 0.83 ± 0.022 | 0.734 ± 0.019
x1 = 0.52 | 0.835 ± 0.022 | 0.712 ± 0.019 | 0.639 ± 0.017
x1 = 0.619 | 0.717 ± 0.019 | 0.621 ± 0.017 | 0.561 ± 0.015
x1 = 0.716 | 0.627 ± 0.017 | 0.547 ± 0.015 | 0.496 ± 0.013
x1 = 0.812 | 0.54 ± 0.014 | 0.473 ± 0.013 | 0.436 ± 0.012
x1 = 0.907 | 0.462 ± 0.012 | 0.407 ± 0.011 | 0.383 ± 0.01
x1 = 0.954 | 0.438 ± 0.012 | 0.379 ± 0.01 | 0.361 ± 0.01

COc1ccccc1N + CC(C)(C)O
viscosity [mPa·s], 101 kPa
Settings | x1 = 0.1116 | x1 = 0.186 | x1 = 0.2667 | x1 = 0.3547 | x1 = 0.4852 | x1 = 0.5945 | x1 = 0.6737 | x1 = 0.7585 | x1 = 0.8979
303.15 K | 3.186 ± 0.14 | 3.335 ± 0.15 | 3.499 ± 0.16 | 3.676 ± 0.16 | 3.932 ± 0.17 | 4.141 ± 0.18 | 4.289 ± 0.19 | 4.448 ± 0.2 | 4.714 ± 0.21
308.15 K | 2.904 ± 0.13 | 3.046 ± 0.14 | 3.199 ± 0.14 | 3.363 ± 0.15 | 3.602 ± 0.16 | 3.797 ± 0.17 | 3.935 ± 0.17 | 4.083 ± 0.18 | 4.327 ± 0.19
313.15 K | 2.371 ± 0.11 | 2.521 ± 0.12 | 2.681 ± 0.12 | 2.855 ± 0.13 | 3.114 ± 0.14 | 3.333 ± 0.15 | 3.493 ± 0.16 | 3.669 ± 0.16 | 3.962 ± 0.17
318.15 K | 1.967 ± 0.092 | 2.116 ± 0.098 | 2.277 ± 0.11 | 2.451 ± 0.11 | 2.718 ± 0.12 | 2.95 ± 0.13 | 3.123 ± 0.14 | 3.314 ± 0.15 | 3.639 ± 0.16

COCCOC + CCCCCCCCCO
101 kPa
Settings | viscosity [mPa·s]
293.15 K, x1 = 0.05508 | 9.45 ± 0.12
293.15 K, x1 = 0.1012 | 7.813 ± 0.1
293.15 K, x1 = 0.2007 | 5.336 ± 0.068
293.15 K, x1 = 0.2922 | 3.86 ± 0.047
293.15 K, x1 = 0.393 | 2.747 ± 0.033
293.15 K, x1 = 0.494 | 1.994 ± 0.023
293.15 K, x1 = 0.5924 | 1.477 ± 0.016
293.15 K, x1 = 0.7015 | 1.076 ± 0.012
293.15 K, x1 = 0.7986 | 0.812 ± 0.009
293.15 K, x1 = 0.907 | 0.588 ± 0.006
293.15 K, x1 = 0.9472 | 0.524 ± 0.006
303.15 K, x1 = 0.04903 | 6.486 ± 0.087
303.15 K, x1 = 0.1035 | 5.323 ± 0.07
303.15 K, x1 = 0.2044 | 3.716 ± 0.047
303.15 K, x1 = 0.2954 | 2.745 ± 0.034
303.15 K, x1 = 0.3981 | 1.979 ± 0.024
303.15 K, x1 = 0.4938 | 1.485 ± 0.017
303.15 K, x1 = 0.5991 | 1.098 ± 0.012
303.15 K, x1 = 0.7049 | 0.816 ± 0.009
303.15 K, x1 = 0.7958 | 0.643 ± 0.007
303.15 K, x1 = 0.902 | 0.492 ± 0.005
303.15 K, x1 = 0.9436 | 0.446 ± 0.005
313.15 K, x1 = 0.05382 | 4.747 ± 0.064
313.15 K, x1 = 0.1054 | 4 ± 0.053
313.15 K, x1 = 0.2052 | 2.936 ± 0.037
313.15 K, x1 = 0.2949 | 2.233 ± 0.028
313.15 K, x1 = 0.3955 | 1.66 ± 0.02
313.15 K, x1 = 0.4901 | 1.279 ± 0.015
313.15 K, x1 = 0.5829 | 1.007 ± 0.011
313.15 K, x1 = 0.7 | 0.739 ± 0.008
313.15 K, x1 = 0.8016 | 0.58 ± 0.006
313.15 K, x1 = 0.9013 | 0.457 ± 0.005
313.15 K, x1 = 0.9469 | 0.41 ± 0.004

COc1ccccc1N + CCOCCO
303.15 K, 101 kPa
Settings | viscosity [mPa·s]
x1 = 0.0875 | 2.2 ± 0.04
x1 = 0.1775 | 2.547 ± 0.046
x1 = 0.2701 | 2.908 ± 0.053
x1 = 0.3653 | 3.268 ± 0.059
x1 = 0.4633 | 3.603 ± 0.065
x1 = 0.5643 | 3.917 ± 0.071
x1 = 0.6683 | 4.18 ± 0.076
x1 = 0.7755 | 4.436 ± 0.08
x1 = 0.886 | 4.681 ± 0.085

COC(C)=O + Cc1ccccc1
viscosity [mPa·s], 101 kPa
Settings | 298.15 K | 308.15 K
x1 = 0.0413 | 0.536 ± 0.005 | 0.487 ± 0.004
x1 = 0.1501 | 0.502 ± 0.004 | 0.459 ± 0.004
x1 = 0.2505 | 0.476 ± 0.004 | 0.437 ± 0.004
x1 = 0.3495 | 0.454 ± 0.004 | 0.419 ± 0.004
x1 = 0.4385 | 0.437 ± 0.004 | 0.404 ± 0.004
x1 = 0.4859 | 0.429 ± 0.004 | 0.397 ± 0.004
x1 = 0.5491 | 0.42 ± 0.004 | 0.389 ± 0.004
x1 = 0.6486 | 0.407 ± 0.004 | 0.377 ± 0.004
x1 = 0.7514 | 0.397 ± 0.004 | 0.367 ± 0.004
x1 = 0.848 | 0.39 ± 0.004 | 0.36 ± 0.004
x1 = 0.9445 | 0.386 ± 0.004 | 0.354 ± 0.004
